# From PubChem BioAssay AID2060886 (Molecular Pharmacology Branch, DTP, NCI, 2025)
# Tested on: 653999-131-R-J2-PDC complex spheroids, growth inhibition
# Assay: Anticancer human tumor 653999-131-R-J2-PDC patient-derived lung adenocarcinoma cell line growth inhibition [RAS]
# Settings: for IC50: curve of first compound; for viability, T/C: stronger effect = lower value
# How it was run: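 Multi-cell-type spheroids: tumor cells plus HUVEC endothelial cells and mesenchymal stem cells. RAS-pathway inhibitors were combined with targeted agents, each dosed in half-log steps down from clinical Cmax, or from 10 microM when Cmax was unknown.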
# 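Further: spheroids exposed to the agents for seven days before the readout.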
smiles,measurement,setting,value
CC(Nc1ccc2c(c1)OCCn1cc(N3C(=O)OCC3C(F)F)nc1-2)C(N)=O (centres undefined) + CCn1c(-c2cccnc2C(C)OC)c2c3cc(ccc31)N1CCOC(CC(NC(=O)C(C(C)C)N(C)C(=O)C3(F)CCN(C(=O)C#CC(C)(C)N(C)C)CC3)C(=O)N3CCCC(N3)C(=O)OCC(C)(C)C2)C1,IC50,second compound 0.000949 µM,772 nM
same,IC50,second compound 0.003 µM,502 nM
same,IC50,second compound 0.00949 µM,544 nM
same,IC50,second compound 0.03 µM,473 nM
same,IC50,second compound 0.0949 µM,510 nM
same,IC50,second compound 0.3 µM,442 nM
same,"viability, T/C","second compound 0.000949 µM, first compound 0.0316 µM",85.2%
same,"viability, T/C","second compound 0.000949 µM, first compound 0.1 µM",79.2%
same,"viability, T/C","second compound 0.000949 µM, first compound 0.316 µM",66.4%
same,"viability, T/C","second compound 0.000949 µM, first compound 1 µM",44.6%
same,"viability, T/C","second compound 0.000949 µM, first compound 3.16 µM",29.4%
same,"viability, T/C","second compound 0.000949 µM, first compound 10 µM",20.1%
same,"viability, T/C","second compound 0.003 µM, first compound 0.0316 µM",88.3%
same,"viability, T/C","second compound 0.003 µM, first compound 0.1 µM",70.8%
same,"viability, T/C","second compound 0.003 µM, first compound 0.316 µM",59.3%
same,"viability, T/C","second compound 0.003 µM, first compound 1 µM",38%
same,"viability, T/C","second compound 0.003 µM, first compound 3.16 µM",30.1%
same,"viability, T/C","second compound 0.003 µM, first compound 10 µM",20.3%
same,"viability, T/C","second compound 0.00949 µM, first compound 0.0316 µM",99.2%
same,"viability, T/C","second compound 0.00949 µM, first compound 0.1 µM",71%
same,"viability, T/C","second compound 0.00949 µM, first compound 0.316 µM",60.3%
same,"viability, T/C","second compound 0.00949 µM, first compound 1 µM",43.7%
same,"viability, T/C","second compound 0.00949 µM, first compound 3.16 µM",26.8%
same,"viability, T/C","second compound 0.00949 µM, first compound 10 µM",21.9%
same,"viability, T/C","second compound 0.03 µM, first compound 0.0316 µM",83.3%
same,"viability, T/C","second compound 0.03 µM, first compound 0.1 µM",69.6%
same,"viability, T/C","second compound 0.03 µM, first compound 0.316 µM",56.8%
same,"viability, T/C","second compound 0.03 µM, first compound 1 µM",37%
same,"viability, T/C","second compound 0.03 µM, first compound 3.16 µM",33.2%
same,"viability, T/C","second compound 0.03 µM, first compound 10 µM",20.5%
same,"viability, T/C","second compound 0.0949 µM, first compound 0.0316 µM",85.8%
same,"viability, T/C","second compound 0.0949 µM, first compound 0.1 µM",73.7%
same,"viability, T/C","second compound 0.0949 µM, first compound 0.316 µM",57.2%
same,"viability, T/C","second compound 0.0949 µM, first compound 1 µM",40.1%
same,"viability, T/C","second compound 0.0949 µM, first compound 3.16 µM",29.3%
same,"viability, T/C","second compound 0.0949 µM, first compound 10 µM",23.9%
same,"viability, T/C","second compound 0.3 µM, first compound 0.0316 µM",92%
same,"viability, T/C","second compound 0.3 µM, first compound 0.1 µM",67.5%
same,"viability, T/C","second compound 0.3 µM, first compound 0.316 µM",53.5%
same,"viability, T/C","second compound 0.3 µM, first compound 1 µM",41.2%
same,"viability, T/C","second compound 0.3 µM, first compound 3.16 µM",29.4%
same,"viability, T/C","second compound 0.3 µM, first compound 10 µM",18.3%
Nc1ccn(C2OC(CO)C(O)C2(F)F)c(=O)n1 (centres undefined) + C=CC(=O)N1CCN(c2nc(OCC3CCCN3C)nc3c(F)c(-c4nc(N)cc(C)c4C(F)(F)F)c(Cl)cc23)C(C)C1,IC50,second compound 0.00316 µM,126 nM
same,IC50,second compound 0.01 µM,61.8 nM
same,IC50,second compound 0.0316 µM,84.6 nM
same,IC50,second compound 0.1 µM,47.2 nM
same,IC50,second compound 0.316 µM,93.4 nM
same,IC50,second compound 1 µM,90.3 nM
same,"viability, T/C","second compound 0.00316 µM, first compound 0.00316 µM",86.5%
same,"viability, T/C","second compound 0.00316 µM, first compound 0.01 µM",82.4%
same,"viability, T/C","second compound 0.00316 µM, first compound 0.0316 µM",61.8%
same,"viability, T/C","second compound 0.00316 µM, first compound 0.1 µM",56%
same,"viability, T/C","second compound 0.00316 µM, first compound 0.316 µM",38.7%
same,"viability, T/C","second compound 0.00316 µM, first compound 1 µM",32%
same,"viability, T/C","second compound 0.01 µM, first compound 0.00316 µM",107%
same,"viability, T/C","second compound 0.01 µM, first compound 0.01 µM",78.3%
same,"viability, T/C","second compound 0.01 µM, first compound 0.0316 µM",54%
same,"viability, T/C","second compound 0.01 µM, first compound 0.1 µM",45.9%
same,"viability, T/C","second compound 0.01 µM, first compound 0.316 µM",41.2%
same,"viability, T/C","second compound 0.01 µM, first compound 1 µM",29.7%
same,"viability, T/C","second compound 0.0316 µM, first compound 0.00316 µM",80.3%
same,"viability, T/C","second compound 0.0316 µM, first compound 0.01 µM",79.8%
same,"viability, T/C","second compound 0.0316 µM, first compound 0.0316 µM",67.8%
same,"viability, T/C","second compound 0.0316 µM, first compound 0.1 µM",46.6%
same,"viability, T/C","second compound 0.0316 µM, first compound 0.316 µM",38.2%
same,"viability, T/C","second compound 0.0316 µM, first compound 1 µM",33.8%
same,"viability, T/C","second compound 0.1 µM, first compound 0.00316 µM",84.3%
same,"viability, T/C","second compound 0.1 µM, first compound 0.01 µM",77.3%
same,"viability, T/C","second compound 0.1 µM, first compound 0.0316 µM",55.7%
same,"viability, T/C","second compound 0.1 µM, first compound 0.1 µM",38.2%
same,"viability, T/C","second compound 0.1 µM, first compound 0.316 µM",40.1%
same,"viability, T/C","second compound 0.1 µM, first compound 1 µM",30.5%
same,"viability, T/C","second compound 0.316 µM, first compound 0.00316 µM",94.6%
same,"viability, T/C","second compound 0.316 µM, first compound 0.01 µM",80.4%
same,"viability, T/C","second compound 0.316 µM, first compound 0.0316 µM",59.9%
same,"viability, T/C","second compound 0.316 µM, first compound 0.1 µM",48.2%
same,"viability, T/C","second compound 0.316 µM, first compound 0.316 µM",42.2%
same,"viability, T/C","second compound 0.316 µM, first compound 1 µM",29.8%
same,"viability, T/C","second compound 1 µM, first compound 0.00316 µM",89.5%
same,"viability, T/C","second compound 1 µM, first compound 0.01 µM",81.4%
same,"viability, T/C","second compound 1 µM, first compound 0.0316 µM",60.6%
same,"viability, T/C","second compound 1 µM, first compound 0.1 µM",48.9%
same,"viability, T/C","second compound 1 µM, first compound 0.316 µM",42.2%
same,"viability, T/C","second compound 1 µM, first compound 1 µM",33.7%
